Molecular target: Nicotinamide phosphoribosyltransferase (NAMPT) (Homo sapiens, UniProt P43490)
Test: biochemical

Chain of Nicotinamide phosphoribosyltransferase (NAMPT) (P43490 whole entry): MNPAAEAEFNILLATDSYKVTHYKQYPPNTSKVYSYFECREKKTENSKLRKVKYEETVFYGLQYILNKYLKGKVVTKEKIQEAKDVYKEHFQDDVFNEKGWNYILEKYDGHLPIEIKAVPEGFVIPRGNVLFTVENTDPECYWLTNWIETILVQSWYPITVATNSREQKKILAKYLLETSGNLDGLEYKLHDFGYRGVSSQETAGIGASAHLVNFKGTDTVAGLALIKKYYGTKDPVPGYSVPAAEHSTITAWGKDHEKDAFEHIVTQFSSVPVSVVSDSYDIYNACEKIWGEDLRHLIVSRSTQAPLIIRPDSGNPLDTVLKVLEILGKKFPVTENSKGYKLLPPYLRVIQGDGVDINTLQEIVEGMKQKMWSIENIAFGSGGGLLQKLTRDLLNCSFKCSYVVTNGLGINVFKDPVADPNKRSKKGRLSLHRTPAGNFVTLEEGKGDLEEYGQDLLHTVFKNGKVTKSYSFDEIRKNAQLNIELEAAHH

Row | EC50 [µM] | Structure (SMILES)
1 | 6.18 | C[C@@H]1O[C@@H](Oc2c(-c3cc(O)c(O)c(O)c3)oc3cc(O)cc(O)c3c2=O)[C@H](O)[C@H](O)[C@H]1O [compound 2, Myricitrin]
2 | 3.58 | O=c1cc2oc3cc(O)c(O)cc3c(-c3ccccc3O)c-2cc1O [compound 20, NSC9037]
